System: BDF1 mice, Adenocarcinoma 755 s.c., tumor weight T/C
Test: NCI In Vivo Anticancer Drug Screen. Data for tumor model Adenocarcinoma 755 (subcutaneous) in B6D2F1 (BDF1) mice
Conditions: endpoint: mean tumor weight, higher = larger tumour
Procedure, shortened: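 Tumor-bearing mice receive test compound while controls get vehicle alone. Antitumor effect is scored from survival or tumor dimensions as a T/C quotient.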

[1] = dose: 8.0 mg/kg/injection, schedule: Q01DX011 (ip), vehicle: carboxymethylcellulose (CMC)
[2] = dose: 40.0 mg/kg/injection, schedule: Q01DX011 (ip), vehicle: carboxymethylcellulose (CMC)
[3] = dose: 75.0 mg/kg/injection, schedule: Q01DX011 (ip), vehicle: methylcellulose (MC)

SMILES: CCOC(=O)c1ccc(N=NN(C)C)cc1
- T/C [1]: 92 % of control
- T/C (dose: 16.0 mg/kg/injection, schedule: Q01DX011 (ip), vehicle: carboxymethylcellulose (CMC)): 94 % of control
- T/C (dose: 31.0 mg/kg/injection, schedule: Q01DX011 (ip), vehicle: carboxymethylcellulose (CMC)): 113 % of control
- T/C (dose: 62.0 mg/kg/injection, schedule: Q01DX011 (ip), vehicle: carboxymethylcellulose (CMC)): 95 % of control

SMILES: CNS(=O)(=O)c1ncnc2nc[nH]c12
- T/C (dose: 3.1 mg/kg/injection, schedule: Q01DX011 (ip), vehicle: methylcellulose (MC)): 77 % of control
- T/C (dose: 6.2 mg/kg/injection, schedule: Q01DX011 (ip), vehicle: methylcellulose (MC)): 36 % of control
- T/C [1]: 51 % of control
- T/C (dose: 10.0 mg/kg/injection, schedule: Q01DX011 (ip), vehicle: carboxymethylcellulose (CMC)): 20 % of control
- T/C (dose: 12.5 mg/kg/injection, schedule: Q01DX011 (ip), vehicle: methylcellulose (MC)): 44 % of control
- T/C (dose: 15.0 mg/kg/injection, schedule: Q01DX011 (ip), vehicle: carboxymethylcellulose (CMC)): 28 % of control
- T/C (dose: 20.0 mg/kg/injection, schedule: Q01DX011 (ip), vehicle: carboxymethylcellulose (CMC)): 2 % of control
- T/C (dose: 25.0 mg/kg/injection, schedule: Q01DX011 (ip), vehicle: methylcellulose (MC)): 5 % of control
- T/C (dose: 30.0 mg/kg/injection, schedule: Q01DX011 (ip), vehicle: carboxymethylcellulose (CMC)): 16 % of control
- T/C [2]: 2 % of control

SMILES: N#Cc1ccc(Nc2cc(Cl)nc(N)n2)cc1
- T/C (dose: 15.0 mg/kg/injection, schedule: Q01DX011 (ip), vehicle: methylcellulose (MC)): 89 % of control
- T/C (dose: 31.0 mg/kg/injection, schedule: Q01DX011 (ip), vehicle: methylcellulose (MC)): 87 % of control
- T/C (dose: 62.0 mg/kg/injection, schedule: Q01DX011 (ip), vehicle: methylcellulose (MC)): 50 % of control
- T/C (dose: 125.0 mg/kg/injection, schedule: Q01DX011 (ip), vehicle: methylcellulose (MC)): 97 % of control
- T/C (dose: 250.0 mg/kg/injection, schedule: Q01DX011 (ip), vehicle: methylcellulose (MC)): 65 % of control

SMILES: Nc1ncnc2c1cnn2C1CCCCO1 (stereo not given)
- T/C (dose: 1.75 mg/kg/injection, schedule: Q01DX011 (ip), vehicle: methylcellulose (MC)): 74 % of control
- T/C (dose: 3.5 mg/kg/injection, schedule: Q01DX011 (ip), vehicle: methylcellulose (MC)): 50 % of control
- T/C (dose: 7.0 mg/kg/injection, schedule: Q01DX011 (ip), vehicle: methylcellulose (MC)): 21 % of control
- T/C (dose: 14.0 mg/kg/injection, schedule: Q01DX011 (ip), vehicle: methylcellulose (MC)): 1 % of control

SMILES: NC(=O)CSc1nc(N)nc2nc[nH]c12
- T/C (dose: 63.0 mg/kg/injection, schedule: Q01DX011 (ip), vehicle: carboxymethylcellulose (CMC)): 113 % of control
- T/C (dose: 125.0 mg/kg/injection, schedule: Q01DX011 (ip), vehicle: carboxymethylcellulose (CMC)): 67 % of control
- T/C (dose: 250.0 mg/kg/injection, schedule: Q01DX011 (ip), vehicle: carboxymethylcellulose (CMC)): 48 % of control
- T/C (dose: 500.0 mg/kg/injection, schedule: Q01DX011 (ip), vehicle: carboxymethylcellulose (CMC)): 33 % of control

SMILES: C[C@H](N)C(=O)N[C@@H]1[C@H]2C(=C(O)C[C@@H](O)[C@@H]2O)C(=O)O[C@@H]1C
- T/C (dose: 250.0 mg/kg/injection, schedule: Q01DX011 (ip), vehicle: saline): 79 % of control
- T/C (dose: 500.0 mg/kg/injection, schedule: Q01DX011 (ip), vehicle: saline): 64 % of control

SMILES: CCSc1nc(N)nc2c1ncn2C1OC(CO)C(O)C1O (stereo not given)
- T/C (dose: 9.3 mg/kg/injection, schedule: Q01DX011 (ip), vehicle: methylcellulose (MC)): 55 % of control
- T/C (dose: 18.7 mg/kg/injection, schedule: Q01DX011 (ip), vehicle: methylcellulose (MC)): 39 % of control
- T/C (dose: 37.5 mg/kg/injection, schedule: Q01DX011 (ip), vehicle: methylcellulose (MC)): 3 % of control
- T/C [3]: 4 % of control

SMILES: C[C@@H]1C[C@H]2CC[C@H](O2)[C@H](C)C(=O)O[C@@H](C)C[C@@H]2CC[C@@H](O2)[C@@H](C)C(=O)O[C@H](C)C[C@H]2CC[C@H](O2)[C@H](C)C(=O)O[C@@H](C)C[C@@H]2CC[C@@H](O2)[C@@H](C)C(=O)O1
- T/C (dose: 2.5 mg/kg/injection, schedule: Q01DX011 (ip), vehicle: olive oil, sesame oil, peanut oil): 116 % of control
- T/C (dose: 5.0 mg/kg/injection, schedule: Q01DX011 (ip), vehicle: olive oil, sesame oil, peanut oil): 85 % of control
- T/C (dose: 10.0 mg/kg/injection, schedule: Q01DX011 (ip), vehicle: olive oil, sesame oil, peanut oil): 96 % of control
- T/C (dose: 10.0 mg/kg/injection, schedule: Q01DX011 (sc), vehicle: olive oil, sesame oil, peanut oil): 118 % of control
- T/C (dose: 18.0 mg/kg/injection, schedule: Q01DX011 (ip), vehicle: carboxymethylcellulose (CMC)): 116 % of control
- T/C (dose: 19.0 mg/kg/injection, schedule: Q01DX011 (ip), vehicle: methylcellulose (MC)): 89 % of control
- T/C (dose: 19.0 mg/kg/injection, schedule: Q01DX011 (sc), vehicle: methylcellulose (MC)): 246 % of control
- T/C (dose: 20.0 mg/kg/injection, schedule: Q01DX011 (ip), vehicle: olive oil, sesame oil, peanut oil): 48 % of control
- T/C (dose: 20.0 mg/kg/injection, schedule: Q01DX011 (sc), vehicle: olive oil, sesame oil, peanut oil): 73 % of control
- T/C (dose: 30.0 mg/kg/injection, schedule: Q01DX011 (sc), vehicle: olive oil, sesame oil, peanut oil): 87 % of control
- T/C (dose: 36.0 mg/kg/injection, schedule: Q01DX011 (ip), vehicle: carboxymethylcellulose (CMC)): 98 % of control
- T/C (dose: 37.5 mg/kg/injection, schedule: Q01DX011 (sc), vehicle: methylcellulose (MC)): 159 % of control
- T/C [2]: 87 % of control
- T/C (dose: 50.0 mg/kg/injection, schedule: Q01DX011 (ip), vehicle: carboxymethylcellulose (CMC)): 92 % of control
- T/C (dose: 60.0 mg/kg/injection, schedule: Q01DX011 (ip), vehicle: carboxymethylcellulose (CMC)): 89 % of control
- T/C (dose: 60.0 mg/kg/injection, schedule: Q01DX011 (sc), vehicle: olive oil, sesame oil, peanut oil): 57 % of control
- T/C [3]: 91 % of control
- T/C (dose: 150.0 mg/kg/injection, schedule: Q01DX011 (sc), vehicle: methylcellulose (MC)): 211 % of control

SMILES: COc1ccccc1NC(=O)CSC(N)=O
- T/C (dose: 50.0 mg/kg/injection, schedule: Q01DX011 (ip), vehicle: methylcellulose (MC)): 106 % of control
- T/C (dose: 400.0 mg/kg/injection, schedule: Q01DX011 (ip), vehicle: carboxymethylcellulose (CMC)): 5 % of control

SMILES: CC(=O)Nc1c(Cl)c(Cl)c2c(c1Cl)Cc1cc(Br)ccc1-2
- T/C (dose: 12.0 mg/kg/injection, schedule: Q01DX011 (ip), vehicle: carboxymethylcellulose (CMC)): 30 % of control
- T/C (dose: 25.0 mg/kg/injection, schedule: Q01DX011 (ip), vehicle: carboxymethylcellulose (CMC)): 41 % of control

From PubChem BioAssay AID180 (DTP/NCI, 2004)
